Like-named read-outs stand apart in the source and are kept apart here.
Key:
[1] = cited from earlier work; for Cmax / F (Bioverfügbarkeit) / t1/2 / tmax: peroral, arithmetic mean; for absolute Bioverfügbarkeit: clinical studies, range over the dosage forms of Tabelle 1
[2] = Diffusion study: diffusion of α-Liponsäure out of a dialysis vessel with/without Chitosan and Essigsäure
Description: Bei der vorliegenden Diffusionsstudie wurde der Einfluss von Chitosan auf das Diffusionsverhalten von α-Liponsäure untersucht.

[3] = 200 mg (±)-Liponsäure als 200 mg-Tablette
[4] = 200 mg (±)-Liponsäure als 4x50 mg-Tabletten
[5] = 200 mg (±)-Liponsäure als Lösung

SMILES	Cmax [1, 3]	F (Bioverfügbarkeit) [1, 3]	t1/2 [1, 3]	tmax [1, 3]	Cmax [1, 4]	F (Bioverfügbarkeit) [1, 4]	t1/2 [1, 4]	tmax [1, 4]	Cmax [1, 5]	F (Bioverfügbarkeit) [1, 5]	t1/2 [1, 5]	tmax [1, 5]	absolute Bioverfügbarkeit [1]	share of the Konzentrationsgleichgewicht reached ([2]; in presence of Chitosan, without Essigsäure, ca. 5 hours)	time until Konzentrationsgleichgewicht der α-Liponsäure innerhalb und außerhalb des Dialysegefäßes was reached ([2]; ohne Chitosan, printed as 'ca.')	Plasma-Halbwertszeit ([1]; after peroral administration)
O=C(O)CCCC[C@H]1CCSS1 [S, S-(-)-α-Liponsäure]	310 ng/mL	19.1%	19.8 min	54 min	380 ng/mL	20.9%	49.2 min	42 min	1320 ng/mL	28.3%	9 min	12.6 min	19.1 - 28.3%			
O=C(O)CCCCC1CCSS1 (racemic) [α-Liponsäure, 1,2-Dithiolan-3-pentansäure]														63,8 % ± 4,3	≤ 5 Stunden	weniger als zwei Stunden
O=C(O)CCCC[C@@H]1CCSS1 [R, R-(+)-α-Liponsäure]	490 ng/mL	24.1%	19.8 min	54 min	600 ng/mL	25.9%	42.6 min	42 min	2240 ng/mL	38.2%	14.4 min	12.6 min	24.1 - 38.2%			

Source: patent EP1216043B1, “RETARD FORM CONTAINING ALPHA-LIPOIC ACID (DERIVATIVES)” (priority 1999, dated 2001)
